# In patent US6489269B1, “Plant-activating agent” (Kao Corporation, priority 1998, dated 2002):
# System: Chlorella cells
# Experiment: Test of reproductive ability using chlorella cells
# Type: cell-based
# Settings: number of chlorella cells after 10 days, relative value, no-treated LS medium = 100; start 1.00x10^5 cells per ml
# Method: <Test of Reproductive Ability Using Chlorella Cells> Chlorella cells, which are green cells of […], were cultured with vibration in an inorganic-salt medium. Raw materials shown in Table 4 were added thereto, and then reproductive ability of chlorella cells (ability for increasing the number of the cells) was evaluated by comparison with the result obtained from a medium which was no-treated (i.e., only original nutrients of the inorganic salt medium). For the respective compositions, the test was repeated 3 times. The concentration of the cells was set to 1.00×10^5 cells (per ml) at the start of the test. […] As the inorganic salt medium, a Linsmaier-Skoog (LS) medium was used.
row,Compound,proliferating ability of cells
1,"CCCO [Comparative product 4-1, Propanol, reference compound]",96
2,"CCCCCCO [Comparative product 4-2, Hexanol, reference compound]",93
3,"CCCCCCCCCCO [Comparative product 4-4, Decyl alcohol, reference compound]",91
4,"CCCCCCCCO [Comparative product 4-7, Octanol, reference compound]",95
5,"CCCCCCCCCCCCO [Invention product 4-1, Lauryl alcohol]",115
6,"CCCCCCCCCCCCCCO [Invention product 4-2, Myristyl alcohol]",128
7,"CCCCCCCCCCCCCCCCO [Invention product 4-4, Cetyl alcohol]",148
8,"CCCCCCCCCCCCCCCCCCO [Invention product 4-6, Stearyl alcohol]",168
9,"CCCCCCCC/C=C\CCCCCCCCO [Invention product 4-7, Oleyl alcohol]",154
10,"CCCCCCCCCCCCCCCCCCCCO [Invention product 4-8, Eicosanol]",152
11,"CCCCCCCCCCCCCCCCCCCCCCO [Invention product 4-9, Docosanol]",130
12,"CCCCCCCCCCCCCCCCCCCCCCCCO [Invention product 4-10, Tetracosanol]",122
13,"CCCCCCCCCCCCCCCCO [Invention product 4-15, Cetyl alcohol]",142
14,"CCCCCCCCCCCCCCCCCCO [Invention product 4-16, Stearyl alcohol]",156
15,"CCCCCCCCCCCCCCCCCCCCO [Invention product 4-17, Eicosanol]",146
